Source: PubChem BioAssay AID1918948 (Molecular Pharmacology Branch, DTP, NCI, 2023)
Values joined by “and” are separate entries in the source; they are usually repeats but may differ in a detail not shown here. Equal values may be shown once.

Test system: K-562 leukemia growth, % test/control
Test: Anticancer human tumor K-562 cell line growth inhibition;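 also: spheroids exposed to compounds for 7 days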;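 as to viability, T/C: 100% = DMSO vehicle wells and lower values mean fewer viable cells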
Details: spheroids with HUVEC and MSC; for viability, T/C: stronger effect = lower value
Source text: Multicellular complex tumor spheroid response to LSD1 Inhibitor Iadademstat in combination with a variety of drugs and investigational agents in selected tumor cell lines
The current study was undertaken to assess response to LSD1 inhibitors in combination with standard-of-care drugs and investigational agents in solid tumor complex spheroid models as well as in the K-562 leukemia. Complex spheroids include a stromal component modeled by human endothelial cells (HUVEC) and fibroblasts modeled by human mesenchymal stem cells (MSCs). The concentration ranges selected for each drug and investigational agent were based upon clinically achievable concentrations if the clinical Cmax of the agent was known.
Compounds. The drugs and investigational agents used in this study are listed on Table 1. All of the agents used, including staurosporine (NSC755774) and gemcitabine (NSC613327), were obtained from the Developmental Therapeutics Program, NCI. FDA-approved anticancer drugs are available from the NCI at http://dtp.nci.nih.gov/branches/dscb/oncology_drugset_explanation.html. Drugs and investigational agents were >95% pure by proton nuclear magnetic resonance (NMR) and liquid chromatography/mass spectrometry (LC/MS). Stock solutions were prepared at 400x in DMSO, stored at -70 degrees C, and diluted in fresh medium prior to their use. The final concentration of DMSO in cell culture wells never exceeded 0.25% (v/v). The FDA-approved anticancer drug set is available from the Developmental Therapeutics Program at https://dtp.cancer.gov/organization/dscb/obtaining/available_plates.htm. All drugs and investigational agents were tested over a range starting from a high concentration at or near the clinical Cmax and decreasing in half-log increments. If the clinical Cmax for an agent had not been determined, the highest concentration tested was 10 microM.
Cell Lines. The patient-derived cancer cell (PDC) lines: 292921-168-R-J2-PDC, K24384-001-R-PDC, and 521955-158-R2-J5-PDC pancreatic carcinomas, 556581-035-R-J1 ovarian carcinoma, 324938-238-R-J1-PDC, 855422-203-R-J1-PDC and 883617-216-R-J1-PDC urothelial bladder carcinomas, 743489-274-T-PDC renal cell carcinoma, 138582-R-J1 Merkel cell tumor, K60290-347-R-J1 and K57222-313-R-J1-PDC glioblastomas, 653999-131-R-J2-PDC, LG0703-F948-PDC, and 349418-098-R-PDC non-small cell lung carcinomas, 885512-296-R-J2-PDC, 171881-019-R-J1-PDC breast carcinomas and 186277-243-T-J2-PDC and 233499-124-R-J2-PDC colon carcinomas were obtained from the NCI Patient-Derived Models Repository (PDMR, https://pdmr.cancer.gov). The established cell lines NCI/ADR-RES (RRID:CVCL_14520 and OVCAR-5 (RRID:CVCL_1628) ovarian carcinomas, 786-O (RRID:CVCL_1051) and A498 (RRID:CVCL_A498) renal cell carcinoma, NCI-H211 (ATCC, cat. CRL-5824; RRID:CVCL_1529), NCI-H196 (ATCC, cat. CRL-5823, RRID:CVCL_1509), SW 1271 (ATCC, cat. CRL-2177, RRID:CVCL_1716) and NCI-H1876 (ATCC, cat. CRL-5902, RRID:CVCL_1503) small cell lung carcinomas, MDA-MB-231 (RRID:CVCL_0062) and MDA-MB-468 (RRID:CVCL_0419)breast carcinomas (10-12). Pooled donor human umbilical vein endothelial cells (HUVEC, Lonza, cat. CC-2519) and human mesenchymal stem cells (hMSC, Lonza, cat. PT-2501) were purchased from Lonza (Walkersville, MD).
Cell Culture. All cells were maintained in an incubator at 37 degrees C and 5% CO2 with 95% humidity. The PDC lines were cultured according to standard operating procedures established by the NCI PDMR (https://pdmr.cancer.gov). Briefly all PDCs were thawed and cultured in Matrigel-coated flasks prepared with a working solution of 1X Ham's F-12 nutrient mix, without supplementation (Invitrogen, Waltham, MA, cat. 11765054), 100 U/mL penicillin-streptomycin (Invitrogen, cat. 15140122), and 2.5% Matrigel (Corning Inc., Corning, NY, cat. 354248) for the first three passages. […]

[1] = curve of first compound, second compound 0.1 µM
[2] = curve of first compound, second compound 0.316 µM
[3] = curve of first compound, second compound 1 µM
[4] = curve of first compound, second compound 3.16 µM
[5] = curve of first compound, second compound 10 µM
[6] = second compound 0.1 µM, first compound 0.00949 µM
[7] = second compound 0.1 µM, first compound 0.03 µM
[8] = second compound 0.1 µM, first compound 0.0949 µM
[9] = second compound 0.1 µM, first compound 0.3 µM
[10] = second compound 0.316 µM, first compound 0.00949 µM
[11] = second compound 0.316 µM, first compound 0.03 µM
[12] = second compound 0.316 µM, first compound 0.0949 µM
[13] = second compound 0.316 µM, first compound 0.3 µM
[14] = second compound 1 µM, first compound 0.00949 µM
[15] = second compound 1 µM, first compound 0.03 µM
[16] = second compound 1 µM, first compound 0.0949 µM
[17] = second compound 1 µM, first compound 0.3 µM
[18] = second compound 3.16 µM, first compound 0.00949 µM
[19] = second compound 3.16 µM, first compound 0.03 µM
[20] = second compound 3.16 µM, first compound 0.0949 µM
[21] = second compound 3.16 µM, first compound 0.3 µM
[22] = second compound 10 µM, first compound 0.00949 µM
[23] = second compound 10 µM, first compound 0.03 µM
[24] = second compound 10 µM, first compound 0.0949 µM
[25] = second compound 10 µM, first compound 0.3 µM

| Compound | IC50 [1] | IC50 [2] | IC50 [3] | IC50 [4] | IC50 [5] | viability, T/C [6] | viability, T/C [7] | viability, T/C [8] | viability, T/C [9] | viability, T/C [10] | viability, T/C [11] | viability, T/C [12] | viability, T/C [13] | viability, T/C [14] | viability, T/C [15] | viability, T/C [16] | viability, T/C [17] | viability, T/C [18] | viability, T/C [19] | viability, T/C [20] | further results |
| --- | --- | --- | --- | --- | --- | --- | --- | --- | --- | --- | --- | --- | --- | --- | --- | --- | --- | --- | --- | --- | --- |
| CCN(c1cc(-c2ccc(CN3CCOCC3)cc2)cc(C(=O)NCc2c(C)cc(C)[nH]c2=O)c1C)C1CCOCC1 + NC1CC1c1ccc(-c2cccc(O)c2)cc1 | 2040 nM | 1940 nM | 1790 nM | 1650 nM | 904 nM | 116% | 117% | 116% | 110% | 115% | 117% | 115% | 108% | 108% | 111% | 118% | 110% | 109% | 111% | 114% | viability, T/C (second compound 0.1 µM, first compound 0.949 µM): 82.9%; viability, T/C (second compound 0.1 µM, first compound 3 µM): 33.5%; viability, T/C (second compound 0.316 µM, first compound 0.949 µM): 80.5%; viability, T/C (second compound 0.316 µM, first compound 3 µM): 31.6%; viability, T/C (second compound 1 µM, first compound 0.949 µM): 75.9%; viability, T/C (second compound 1 µM, first compound 3 µM): 28.9%; viability, T/C [21]: 103%; viability, T/C (second compound 3.16 µM, first compound 0.949 µM): 70.8%; viability, T/C (second compound 3.16 µM, first compound 3 µM): 27.7%; viability, T/C [22]: 105%; viability, T/C [23]: 109%; viability, T/C [24]: 109%; viability, T/C [25]: 92.2%; viability, T/C (second compound 10 µM, first compound 0.949 µM): 48.5%; viability, T/C (second compound 10 µM, first compound 3 µM): 20.1% |
| COc1cc(Nc2ncc3c(n2)-c2ccc(Cl)cc2C(c2c(F)cccc2OC)=NC3)ccc1C(=O)O | – | – | – | – | – | – | – | – | – | – | – | – | – | – | – | – | – | – | – | – | viability, T/C (compound 0.00316 µM): 83.3% and 43.7%; viability, T/C (compound 0.01 µM): 41.7% and 44.3%; viability, T/C (compound 0.0316 µM): 40% and 40.6%; viability, T/C (compound 0.1 µM): 39.9% and 40.8%; viability, T/C (compound 0.316 µM): 37.6% and 11.2%; IC50 (curve of compound): 8 nM and < 3.16 nM |
| CCc1c2c(nc3ccc(O)cc13)-c1cc3c(c(=O)n1C2)COC(=O)[C@]3(O)CC + NC1CCC(NC2CC2c2ccccc2)CC1 | < 0.949 nM | < 0.949 nM | < 0.949 nM | < 0.949 nM | < 0.949 nM | 1.66% | 1.09% | 0.45% | 0.5% | 1.72% | 2.09% | 0.56% | 0.51% | 1.8% | 1.24% | 1.88% | 0.5% | 1.7% | 1.4% | 0.45% | viability, T/C (second compound 0.1 µM, first compound 0.000949 µM): 5.18%; viability, T/C (second compound 0.1 µM, first compound 0.003 µM): 3.15%; viability, T/C (second compound 0.316 µM, first compound 0.000949 µM): 5.49%; viability, T/C (second compound 0.316 µM, first compound 0.003 µM): 3.06%; viability, T/C (second compound 1 µM, first compound 0.000949 µM): 5.31%; viability, T/C (second compound 1 µM, first compound 0.003 µM): 3.05%; viability, T/C (second compound 3.16 µM, first compound 0.000949 µM): 5.35%; viability, T/C (second compound 3.16 µM, first compound 0.003 µM): 3.03%; viability, T/C [21]: 0.47%; viability, T/C (second compound 10 µM, first compound 0.000949 µM): 4.28%; viability, T/C (second compound 10 µM, first compound 0.003 µM): 2.29%; viability, T/C [22]: 1.7%; viability, T/C [23]: 1.31%; viability, T/C [24]: 0.58%; viability, T/C [25]: 2.36% |
